Data on 50 compounds can be found in PubChem BioAssay AID179 (DTP/NCI, 2004).

This test has as its system CEM cells HIV-1 protection, formazan growth assay. The test is described as follows: NCI AIDS Antiviral Assay. As to conditions: for IC50: measured here: growth of uninfected CEM cells. In short, it runs like this: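 Steps: treat uninfected and HIV-1-infected human CEM cells at five drug levels; quantify growth by soluble formazan; retest any compound reaching 50% protection; classify actives from the retest.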

Active and inactive are the calls of the source.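 The calls were made as follows: active = compounds giving half or more protection of infected cells from virus-caused growth loss, again on retest; inactive = the rest.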

The EC50 is the concentration needed to bring the measured effect to its halfway point. One may read the IC50 as the concentration at which inhibition is half-maximal. A high value points to lower potency.

Turning to `Cc1cc(SSc2cc(C)c3ccccc3n2)nc2ccccc12`, the EC50 is over 200 µM and the IC50 was found to be 110 µM.

In the case of `CSCCCNC(=O)[C@H](CSC)NC(=O)c1csc(CCNC(=O)[C@@H](NSc2ccccc2[N+](=O)[O-])C(C)O)n1` (stereo not given in full), the EC50 was over 57.5 µM and the IC50 is over 57.5 µM. On to `CC(C)C1CC[C@@H](C)C[C@@]1(O)CC(N)=O` (stereo not given in full), for which the outcome was inactive. With `CCOC(=O)CCC(NC(=O)OCc1ccccc1)C(=O)NC(CCC(=O)OCC)C(=O)NC(CCC(=O)OCC)C(=O)NNC(=O)OC(C)(C)C` (stereo not given), the EC50 was over 200 µM and the 50% inhibitory concentration (IC50) was over 200 µM.

With `N/N=C1\c2ccccc2C2/C(=N\N)c3ccccc3C12` (stereo not given), the outcome was inactive. Consider `CCCNC1=C(Cl)C(=O)c2ccccc2C1=O`, for which the EC50 was over 145 µM and the half-inhibitory concentration (IC50) was 26.3 µM. Consider `C[C@H]1CC[C@@]2(OC1)O[C@H]1C[C@H]3[C@@H]4CC[C@@H]5C[C@@H](OC6OC(CO)C(O)C(O)C6OC6OC(CO)C(O)C(O)C6O)CC[C@]5(C)[C@H]4CC[C@]3(C)[C@H]1[C@@H]2C` (stereo not given in full), for which the EC50 is over 200 µM and the IC50 worked out at 5.25 µM.

On to `Nc1nc(C[P+](c2ccccc2)(c2ccccc2)c2ccccc2)c(CCCCc2ccccc2)c(=O)[nH]1`, for which the EC50 was over 200 µM and the IC50 came to 33.1 µM.

With `Cn1cncc1CC1COC(=O)C1C(O)c1ccccc1` (stereo not given), the EC50 was over 200 µM and the IC50 is over 200 µM. `O=c1nc(Nc2cccc(Cl)c2)oc2cc(Cl)oc(=O)c12`: the EC50 was over 79.4 µM and the IC50 came out at 11.5 µM.

As to `O=C(Cc1ccccc1)N=Nc1c(O)[nH]c2ccccc12`, the EC50 is over 200 µM and the half-inhibitory concentration (IC50) is over 200 µM. Consider `NC(=O)c1cc(NC(=O)c2ccc(C(=O)Nc3cc(C(N)=O)cc(C4=NCCN4)c3)cc2)cc(C2=NCCN2)c1`, for which the EC50 is over 100 µM and the concentration for half-maximal inhibition (IC50) was over 100 µM. Regarding `COC(=O)C12C3C4C1C1C2C3C41C(=O)OC(C)(C)C` (stereo not given), the EC50 is over 257 µM and the concentration for half-maximal inhibition (IC50) is over 257 µM. `CO[C@@H]1C2=CC=CC=C[C@H]2n2c(=O)n(C)c(=O)n21`: the EC50 was over 525 µM and the half-maximal inhibitory concentration (IC50) was determined as 79.4 µM.

Take `COc1cc(Nc2cc(Cl)cc(Cl)c2)nc(N)n1`: the EC50 is over 200 µM and the IC50 worked out at 27.5 µM. The corresponding values for `CCOC(=O)CNS(=O)(=O)c1ccccc1` are over 200 µM and over 200 µM.

Take `O=C(O)C1COCN1C(=O)c1cccnc1SSc1ncccc1C(=O)N1COCC1C(=O)O` (stereo not given): the EC50 was over 200 µM and the 50% inhibitory concentration (IC50) was over 200 µM. For the compound `CN(CCSCC(N)C(=O)O)CCSCC(N)C(=O)O` (stereo not given), the EC50 was over 87.1 µM and the concentration for half-maximal inhibition (IC50) is over 87.1 µM. On to `O=S(=O)(N=NC=C1c2ccccc2N(O)c2ccccc21)c1ccc(Cl)cc1`, for which the outcome was inactive. For `CCN1C[C@]2(C)CCC(OC)C34[C@@H]1[C@@]1(OCO[C@@]15C[C@H](OC)[C@@H]1C[C@]3(O)[C@@H]5C1OC(C)=O)[C@@H](OC(C)=O)[C@@H]42` (stereo not given in full), the result was inactive.

Take `CC(C)C12NC(=O)NC(=O)N1CCS2` (stereo not given): the outcome was inactive.

For `Nc1nc(N)c(N=O)c(=O)[nH]1.[Cd]`, the EC50 is over 200 µM and the IC50 is 1.74 µM. As for `CCN(CC)Cc1c2c(O)c3c(O)c(C)c4c(c3c1O)C(=O)C(C)(O/C=C/C(OC)C(C)C(OC(C)=O)C(C)C(O)C(C)C(O)C(C)/C=C/C=C(\C)C(=O)N2)O4` (stereo not given), the EC50 was over 200 µM and the IC50 was 33.1 µM. In the case of `C[S+](C)(=O)CCCS(=O)(=O)[O-]`, the EC50 is over 200 µM and the IC50 was over 200 µM. On to `CN1C(=O)Cc2ccccc21`, for which the EC50 was over 200 µM and the IC50 is 151 µM. As for `CCCCOC(=O)C1CN2C(=NC1(C(F)(F)F)C(F)(F)F)Sc1ccccc12` (stereo not given), the outcome was inactive. For the compound `COCC(C#N)NC1CC(OC2CC(O)(C(=O)CO)Cc3c(O)c4c(c(O)c32)C(=O)c2c(OC)cccc2C4=O)OC(C)C1O` (stereo not given), the EC50 was over 0.2 µM and the IC50 turned out to be 0.00912 µM. The corresponding values for `O=C1NC2ON=C(c3ccccc3)C2C2ON=C(c3ccccc3)N12` (stereo not given) are over 200 µM and 37.2 µM. `O=C(CCCC(=O)Nc1ccc(Cl)cc1Cl)CC(=O)c1ccc2ccccc2c1`: the EC50 is over 417 µM and the 50% inhibitory concentration (IC50) was over 417 µM. Consider `CN/N=C(\C)CC(=O)Nc1cccc(Cl)c1C`, for which the EC50 was over 14.8 µM and the half-inhibitory concentration (IC50) was over 14.8 µM. Turning to `COc1cc2c(c(C3(O)C(=O)N(C)c4ccccc43)c1OC)OCO2` (stereo not given), the EC50 is over 200 µM and the IC50 was over 200 µM. On to `CN1C/C(=C\c2ccco2)c2nc(N)nc(-c3ccco3)c2C1`, for which the outcome was inactive. As for `CCCc1cc(=O)oc2c3c(c4c(c12)OC(C)(C)C=C4)OC(C)[C@H](C)[C@@H]3O` (stereo not given in full), the concentration for a half-maximal effect (EC50) is 5.01 µM and the 50% inhibitory concentration (IC50) stood at 13.8 µM. For `C=C1C(OC(=O)CC(c2ccccc2)N(C)C)C[C@H](OC(C)=O)[C@]2(C)C1C(O)[C@@H]1CC(OC(C)=O)C(C)=C([C@@H](OC(C)=O)C2OC(C)=O)C1(C)C` (stereo not given in full), the result was inactive. On to `CC(=O)OCC1OC(n2c(C)cc(-c3ccc(Cl)cc3)c(C#N)c2=S)C(OC(C)=O)C(OC(C)=O)C1OC(C)=O` (stereo not given), for which the EC50 is over 200 µM and the IC50 turned out to be 30.2 µM.

For the compound `CSc1cc(Br)ccc1-n1c(C(=O)c2ccccc2)c(SC)n(-c2ccccc2)c1=O`, the EC50 was over 200 µM and the IC50 amounted to 14.5 µM. For the compound `Cc1cc[n+](C2=C([O-])C3=C(C(=O)C2=O)C2c4ccccc4C3c3ccccc32)c(C)c1`, the EC50 is over 33.9 µM and the 50% inhibitory concentration (IC50) came to 31.6 µM. Consider `COC(=O)C(Cc1nc2ccc(Cl)cc2[nH]c1=O)/C(=N/NC(N)=O)C(=O)Nc1ccc(Cl)cc1` (stereo not given), for which the EC50 is over 70.8 µM and the IC50 was over 70.8 µM. As for `CN(C)CCNC(=O)c1cccc(C(=O)Nc2ccccc2)c1[N+](=O)[O-]`, the EC50 was over 200 µM and the IC50 is over 200 µM.

For the compound `CC(C)(C)C1CCC2c3c([nH]c4ccccc34)C3C(=O)N(c4ccc(Br)cc4)C(=O)C3C2C1` (stereo not given), the EC50 is over 14.5 µM and the IC50 was over 14.5 µM.

With `c1cc[c]([Pb]([c]2ccccc2)[c]2ccccc2)cc1`, the outcome was inactive.

As for `N#C/C(=C/c1ccco1)C(=O)c1ccccc1`, the EC50 is over 162 µM and the IC50 was over 162 µM. For `O=[N+]([O-])c1ccc(NCCS(=O)(=O)O)c([N+](=O)[O-])c1`, the EC50 is over 794 µM and the IC50 was over 794 µM. For the compound `O=c1ssc(Cl)c1Cl`, the EC50 was over 200 µM and the IC50 is 33.9 µM.

For the compound `O=C1c2cc3c(cc2CC12Cc1cc4c(cc1C2=O)CCC4)CCCC3` (stereo not given), the EC50 was over 200 µM and the IC50 was over 200 µM. `Cc1ccc(C)c(NC(=O)C(=O)Nn2c(=S)[nH]c3ccccc3c2=O)c1`: the EC50 is over 501 µM and the IC50 amounted to 191 µM.

Turning to `CC1=CCC(C)=Nc2nc3ccccc3n21`, the EC50 is over 200 µM and the 50% inhibitory concentration (IC50) is over 200 µM. For `COC(=O)c1ccccc1C1=C(O)C(=O)C(c2ccccc2C(=O)OC)=C(O)C1=O`, the EC50 is over 63.1 µM and the IC50 was determined as 6.76 µM. Consider `c1ccc(-c2nnc(-c3nn(-c4ccccc4)c4nc5ccccc5nc34)o2)cc1`, for which the outcome was inactive. In the case of `O=C([CH-]C(=O)c1ccccc1)c1ccccc1.[CH2-]C.[CH2-]C.[Tl+3]`, the EC50 is over 53.7 µM and the IC50 is over 53.7 µM.
